Experimental data as given in patent US10759751B2, “Substituted spirocyclohexanes as muscarinic M1 receptor and/or M4 receptor agonists” (Heptares Therapeutics Limited, priority 2016, dated 2020).

Tests used:
[1] = target: T1, human muscarinic M4 receptor (Homo sapiens, UniProt P08173); test: Alphascreen Surefire phospho-ERK1/2 functional assay, M4; assay type: cell-based; details: for EC50: read-out: pEC50 M4 (converted); for Emax: CHO, read-out: M4 % Emax cf. ACh, CHO cells stably expressing human M4; for Emax / M4 % Emax cf. ACh: Emax relative to ACh
T1 construct: expressed in transfected cells
T1 sequence (P08173 1-479): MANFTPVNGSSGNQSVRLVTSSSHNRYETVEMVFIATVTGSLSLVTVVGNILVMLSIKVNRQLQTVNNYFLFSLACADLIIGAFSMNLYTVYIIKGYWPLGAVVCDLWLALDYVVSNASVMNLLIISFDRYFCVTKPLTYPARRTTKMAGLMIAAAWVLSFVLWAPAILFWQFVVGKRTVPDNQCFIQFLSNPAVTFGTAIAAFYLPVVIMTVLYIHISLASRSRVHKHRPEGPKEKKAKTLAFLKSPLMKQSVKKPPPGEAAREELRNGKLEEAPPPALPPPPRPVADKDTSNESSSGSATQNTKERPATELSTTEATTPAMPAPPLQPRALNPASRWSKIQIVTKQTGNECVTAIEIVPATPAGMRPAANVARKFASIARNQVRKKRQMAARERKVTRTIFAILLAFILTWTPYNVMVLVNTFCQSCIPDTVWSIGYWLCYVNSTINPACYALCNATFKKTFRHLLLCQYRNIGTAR
Experimental: (§1) Functional assays were performed using the Alphascreen Surefire phospho-ERK1/2 assay (Crouch & Osmond, Comb. Chem. High Throughput Screen, 2008). ERK1/2 phosphorylation is a downstream consequence of both Gq/11 and Gi/o protein coupled receptor activation, making it highly suitable for the assessment of M1, M3 (Gq/11 coupled) and M2, M4 receptors (Gi/o coupled), rather than using different assay formats for different receptor subtypes. CHO cells stably expressing the human muscarinic M1, M2, M3 or M4 receptor were plated (25K/well) onto 96-well tissue culture plates in MEM-alpha+10% dialysed FBS. Once adhered, cells were serum-starved overnight. Agonist stimulation was performed by the addition of 5 μL agonist to the cells for 5 min (37° C.). Media was removed and 50 μL of lysis buffer added. After 15 min, a 4 μL sample was transferred to 384-well plate and 7 μL of detection mixture added. Plates were incubated for 2 h with gentle agitation in the dark and then read on a PHERAstar plate reader.
(§2) pEC50 and Emax figures were calculated from the resulting data for each receptor subtype.

[2] = target: T2, human muscarinic M1 receptor (Homo sapiens, UniProt P11229); test: Alphascreen Surefire phospho-ERK1/2 functional assay, M1; assay type: cell-based; details: for EC50 / M1 % Emax cf. ACh: CHO cells stably expressing human M1; for EC50: phospho-ERK1/2, read-out: pEC50 M1 (converted); for Emax: CHO, read-out: M1 % Emax cf. ACh, CHO cells stably expressing human M1; for Emax / M1 % Emax cf. ACh: Emax relative to ACh
T2 sequence (P11229 1-460): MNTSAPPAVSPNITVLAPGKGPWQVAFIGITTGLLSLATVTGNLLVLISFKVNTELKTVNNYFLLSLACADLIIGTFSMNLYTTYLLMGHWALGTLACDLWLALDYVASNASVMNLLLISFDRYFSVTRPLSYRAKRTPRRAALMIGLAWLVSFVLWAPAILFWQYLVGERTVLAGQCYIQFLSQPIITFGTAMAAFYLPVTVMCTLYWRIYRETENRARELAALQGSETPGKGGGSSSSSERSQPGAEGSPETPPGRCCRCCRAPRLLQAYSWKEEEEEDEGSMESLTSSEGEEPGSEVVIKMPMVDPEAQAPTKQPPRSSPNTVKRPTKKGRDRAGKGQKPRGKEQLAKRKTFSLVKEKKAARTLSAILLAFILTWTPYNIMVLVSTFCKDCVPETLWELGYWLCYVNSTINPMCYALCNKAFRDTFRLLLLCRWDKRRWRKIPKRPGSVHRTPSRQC
Experimental: as §1, §2

[3] = CHO cells stably expressing human M4, phospho-ERK1/2
[4] = CHO cells stably expressing human M4

EC50 [1, 3]	Emax [1]	EC50 [2]	Emax [2]	M4 % Emax cf. ACh [1, 4]	M1 % Emax cf. ACh [2]	pEC50 M4 [1, 3]	Compound
> 20000 nM	56%	117 nM	77%	–	–	–	CCOC(=O)N[C@H]1CCN(C2CCC3(CC2)C(=O)N(C(=O)OCC)c2ccccc23)C1 (single isomer, unassigned) [2-14 isomer 2]
69.2 nM	–	162 nM	–	75%	80%	–	Cc1noc(C2CC3(CCN(C4CCC(C#N)(c5ccc(F)cn5)CC4)C3)C2)n1 (single isomer, unassigned) [21-3 Isomer 4]
1780 nM	49%	229 nM	116%	–	–	–	CCOC(=O)N[C@@H]1CCN(C2CCC(C#N)(c3cccc(F)c3)CC2)C1 (single isomer, unassigned) [1-6 Isomer 2]
871 nM	84%	158 nM	103%	–	–	–	CCOC(=O)N[C@@H]1CCN(C2CCC3(CC2)C(=O)Nc2ccccc23)C1 (single isomer, unassigned) [2-2 isomer 1]
> 20000 nM	7%	269 nM	39%	–	–	–	CCOC(=O)N[C@H]1CCN(C2CCC(C#N)(c3ccc(Cl)cn3)CC2)C1 (single isomer, unassigned) [1-15 Isomer 2]
245 nM	86%	468 nM	58%	–	–	–	CCOC(=O)N(C)[C@@H]1CCN(C2CCC3(CC2)C(=O)Nc2cccnc23)C1 (single isomer, unassigned) [2-21 isomer 2]
> 20000 nM	16%	372 nM	32%	–	–	–	CCOC(=O)N[C@H]1CCN(C2CCC3(CC2)C(=O)Nc2ccc(OC)nc23)C1 (single isomer, unassigned) [2-20 isomer 1]
> 20000 nM	51%	282 nM	77%	–	–	–	CCOC(=O)N[C@H]1CCN(C2CCC3(CC2)C(=O)Nc2cc(OC)ccc23)C1 (single isomer, unassigned) [2-9 isomer 1]
> 20000 nM	19%	437 nM	89%	–	–	–	CCOC(=O)N1CCCN(C2CCC3(CC2)C(=O)Nc2ncc(OC)cc23)CC1 (single isomer, unassigned) [4-17 isomer 2]
–	–	1780 nM	–	1%	35%	< 4.7	CCOC(=O)N[C@H]1CCN(C2CCC3(CC2)C(=O)Nc2cc(F)ccc23)C1 (single isomer, unassigned) [2-7 isomer 1]
324 nM	97%	6760 nM	104%	–	–	–	CCOC(=O)N1CCCN(C2CCC3(CC2)CN(S(C)(=O)=O)c2ncccc23)CC1 (single isomer, unassigned) [4-19 isomer 1]
> 20000 nM	5%	891 nM	60%	–	–	–	CCOC(=O)N1CCCN(C2CCC3(CC2)C(=O)Nc2ncc(Cl)cc23)CC1 (single isomer, unassigned) [4-16 isomer 1]
1260 nM	–	14500 nM	–	51%	82%	–	Cc1ccc(C2(C#N)CCC(N3CCC4(CC(c5nc(C)no5)C4)C3)CC2)nc1 (single isomer, unassigned) [21-5 Isomer 2]
282 nM	–	490 nM	–	20%	68%	–	CCOC(=O)NC1CCN(C2CCC3(CC2)C(=O)Nc2ccccc23)CC1 (single isomer, unassigned) [7-1 isomer 2]
> 20000 nM	–	389 nM	–	10%	66%	–	CCOC(=O)NCC1CCN(C2CCC3(CC2)C(=O)Nc2ccccc23)CC1 (single isomer, unassigned) [7-2 isomer 2]
3240 nM	–	575 nM	–	26%	85%	–	CCOC(=O)N1CCCN(C2CCC3(CC2)C(=O)Nc2cc(C)ccc23)CC1 (single isomer, unassigned) [4-6 isomer 1]
